# Assay results as given in paper PMC11876671, “Investigating blood–brain barrier penetration and neurotoxicity of natural products for central nervous system drug development” (Scientific Reports, 2025).
# Counter-ions that a name gives are not always drawn.
# Experiment: in vitro
# Conditions: PAMPA, PAMPA-BBB Pe(10^-6 cm/sec)
row,Structure (SMILES),Papp
1,O=C(O)c1cccnc1 [NICOTINIC ACID],< 1 ×10⁻⁶ cm/s
2,CC[C@H](C)C(=O)O[C@H]1C[C@H](O)C=C2C=C[C@H](C)[C@H](CC[C@@H](O)C[C@@H](O)CC(=O)O)[C@H]21 [PRAVASTATIN SODIUM],< 1 ×10⁻⁶ cm/s
3,COc1ccc(C[C@H](N)C(=O)N[C@@H]2[C@@H](CO)OC(n3cnc4c(N(C)C)ncnc43)[C@@H]2O)cc1 (stereo partly shown) [PUROMYCIN MONOHYDROCHLORIDE],< 1 ×10⁻⁶ cm/s
4,CNCC(O)c1ccc(O)c(O)c1 (stereo not shown) [RACEPINEPHRINE HYDROCHLORIDE],< 1 ×10⁻⁶ cm/s
5,Cc1cc2nc3c(=O)[nH]c(=O)nc-3n(C[C@H](O)[C@H](O)[C@H](O)CO)c2cc1C [RIBOFLAVIN],< 1 ×10⁻⁶ cm/s
6,CO[C@H]1/C=C/O[C@@]2(C)Oc3c(C)c(O)c4c(O)c(c(/C=N/N5CCN(C)CC5)c(O)c4c3C2=O)NC(=O)/C(C)=C\C=C\[C@H](C)[C@H](O)[C@@H](C)[C@@H](O)[C@@H](C)[C@H](OC(C)=O)[C@@H]1C [Rifampicin],3.7 ×10⁻⁶ cm/s

# Same assay, conditions: PAMPA, PAMPA-BBB Pe(10^-6 cm/sec), Table S3: compounds exhibiting low PAMPA-BBB permeability
row,Structure (SMILES),Papp
1,COc1cc2c(c(OC)c1OC)-c1ccc(OC)c(=O)cc1[C@@H](NC=O)CC2 [N-FORMYL-N-DEACETYLCOLCHICINE],6.6 ×10⁻⁶ cm/s
2,CNc1ncnc2c1ncn2C1OC(CO)C(O)C1O (stereo not shown) [N-METHYLADENOSINE],< 1 ×10⁻⁶ cm/s
3,CNCCc1c[nH]c2ccc(O)cc12 [N-METHYLSEROTONIN],7.1 ×10⁻⁶ cm/s
4,C[C@@H]1C/C=C/C=C/C=C/C=C/[C@H](O[C@@H]2O[C@H](C)[C@@H](O)[C@H](N)[C@@H]2O)C[C@@H]2O[C@](O)(C[C@@H](O)C[C@H]3O[C@@H]3/C=C/C(=O)O1)C[C@H](O)[C@H]2C(=O)O [NATAMYCIN],5.7 ×10⁻⁶ cm/s
5,COc1ccc([C@@H]2CC(=O)c3c(O)cc(O[C@@H]4O[C@H](CO)[C@@H](O)[C@H](O)[C@H]4O[C@@H]4O[C@@H](C)[C@H](O)[C@@H](O)[C@H]4O)cc3O2)cc1O [NEOHESPERIDIN],< 1 ×10⁻⁶ cm/s
6,C[N+]1([O-])CCC[C@@H]1c1cccnc1 (stereo partly shown) [NICOTINE N'-OXIDE],2.8 ×10⁻⁶ cm/s
7,CC(=O)NCCc1c[nH]c2ccc(O)cc12 [NORMELATONIN],< 1 ×10⁻⁶ cm/s
8,COc1cc(C(O)CN)ccc1O (stereo not shown) [NORMETADRENALINE HYDROCHLORIDE],< 1 ×10⁻⁶ cm/s
9,c1cncc([C@@H]2CCCN2)c1 [NORNICOTINE],8.4 ×10⁻⁶ cm/s
10,Cc1cc(O)c(C=O)c2c1C(=O)Oc1c(C)c(O)c3c(c1O2)C(O)OC3=O (stereo not shown) [Norstictic acid],2 ×10⁻⁶ cm/s
11,CC(=O)Nc1ccccc1O [O-ACETAMIDOPHENOL],< 1 ×10⁻⁶ cm/s
12,COc1ccc(-c2coc3cc(O[C@@H]4O[C@H](CO)[C@@H](O)[C@H](O)[C@H]4O)ccc3c2=O)cc1 [ONONOSIDE],< 1 ×10⁻⁶ cm/s
13,Cn1c(=O)[nH]c2ncn(C)c2c1=O [PARAXANTHINE],< 1 ×10⁻⁶ cm/s
14,O=C1C=C2C(=CCOC2O)O1 (stereo not shown) [PATULIN],< 1 ×10⁻⁶ cm/s
15,COc1ccc(-c2cc(=O)c3c(O)c(OC)c(O[C@@H]4O[C@H](CO[C@@H]5O[C@@H](C)[C@H](O)[C@@H](O)[C@H]5O)[C@@H](O)[C@H](O)[C@H]4O)cc3o2)cc1 [PECTOLINARIN],< 1 ×10⁻⁶ cm/s
16,Oc1ccc(-c2[o+]c3cc(O)cc(O)c3cc2O)cc1 [PELARGONIDIN],< 1 ×10⁻⁶ cm/s
17,O=C(OC[C@H]1O[C@@H](OC(=O)c2cc(O)c(O)c(O)c2)[C@H](OC(=O)c2cc(O)c(O)c(O)c2)[C@@H](OC(=O)c2cc(O)c(O)c(O)c2)[C@@H]1OC(=O)c1cc(O)c(O)c(O)c1)c1cc(O)c(O)c(O)c1 [PENTAGALLOYLGLUCOSE],3.2 ×10⁻⁶ cm/s
18,O=C(CCc1ccc(O)cc1)c1c(O)cc(O)cc1O [PHLORETIN],2.2 ×10⁻⁶ cm/s
19,O=C(CCc1ccc(O)cc1)c1c(O)cc(O)cc1O[C@@H]1O[C@H](CO)[C@@H](O)[C@H](O)[C@H]1O [PHLORIDZIN],1.4 ×10⁻⁶ cm/s
20,CC1=C[C@H]2[C@@]3(O)[C@H](C)[C@@H](O)[C@]4(O)[C@H]([C@@H]3C=C(CO)C[C@]2(O)C1=O)C4(C)C [PHORBOL],< 1 ×10⁻⁶ cm/s
21,CC(=O)c1ccc(O[C@@H]2O[C@H](CO)[C@@H](O)[C@H](O)[C@H]2O)cc1 [PICEIN],< 1 ×10⁻⁶ cm/s
22,O=C(O)/C=C/C=C/c1ccc2c(c1)OCO2 [PIPERIC ACID],< 1 ×10⁻⁶ cm/s
23,O=C(O)c1ccc2c(c1)OCO2 [PIPERONYLIC ACID],< 1 ×10⁻⁶ cm/s
24,OC[C@H]1O[C@@H](Oc2cc(O)cc(/C=C/c3ccc(O)cc3)c2)[C@H](O)[C@@H](O)[C@@H]1O [POLYDATIN],< 1 ×10⁻⁶ cm/s
25,COc1ccc([C@@H]2CC(=O)c3c(O)cc(O[C@@H]4O[C@H](CO)[C@@H](O)[C@H](O)[C@H]4O[C@@H]4O[C@@H](C)[C@H](O)[C@@H](O)[C@H]4O)cc3O2)cc1 [PONCIRIN],< 1 ×10⁻⁶ cm/s

row,Structure (SMILES),Papp
1,C[C@@H]1O[C@@H](O[C@@H]2C=C3CC[C@@H]4[C@H](CC[C@]5(C)[C@@H](c6ccc(=O)oc6)CC[C@]45O)[C@@]3(C)CC2)[C@H](O)[C@H](O)[C@H]1O [PROSCILLARIDIN],1.5 ×10⁻⁶ cm/s
2,CCCCC[C@H](O)/C=C/C1=C(CCCCCCC(=O)O)C(=O)CC1 [PROSTAGLANDIN B1],< 1 ×10⁻⁶ cm/s
3,CC(=O)O[C@@]12C[C@@H](C)[C@@]3(O)[C@@H](C=C(CO)C[C@]4(O)C(=O)C(C)=C[C@@H]34)[C@@H]1C2(C)C [PROSTRATIN],< 1 ×10⁻⁶ cm/s
4,O=C(O)c1ccc(O)c(O)c1 [PROT[…]],< 1 ×10⁻⁶ cm/s
5,O=c1c(-c2ccc(O)cc2)coc2c([C@@H]3O[C@H](CO)[C@@H](O)[C@H](O)[C@H]3O)c(O)ccc12 [PUERARIN],< 1 ×10⁻⁶ cm/s
6,O=C(O)c1cccc(O)c1O [PYR[…]],< 1 ×10⁻⁶ cm/s
7,COc1ccc2[nH]c3c(c2c1)CCNC3 [Pinoline],2.5 ×10⁻⁶ cm/s
8,O=c1c(O)c(-c2ccc(O)c(O)c2)oc2cc(O)cc(O)c12 [QUERCETIN],< 1 ×10⁻⁶ cm/s
9,C[C@H]1O[C@@H](Oc2c(-c3ccc(O)c(O)c3)oc3cc(O)cc(O)c3c2=O)[C@H](O)[C@H](O)[C@H]1O [QUERCITROSIDE],< 1 ×10⁻⁶ cm/s
10,O=C(O)[C@H]1O[C@@H](Oc2c(-c3ccc(O)c(O)c3)oc3cc(O)cc(O)c3c2=O)[C@H](O)[C@@H](O)[C@@H]1O [QUERCITURONE],4.2 ×10⁻⁶ cm/s
11,O=C(O)c1cccnc1C(=O)O [QUINOLINIC ACID],< 1 ×10⁻⁶ cm/s
12,CC(=O)CCc1ccc(O)cc1 [RASPBERRY KETONE],4.1 ×10⁻⁶ cm/s
13,Oc1ccc(/C=C/c2cc(O)cc(O)c2)cc1 [RESVERATROL],1.8 ×10⁻⁶ cm/s
14,C[C@@H]1O[C@@H](O[C@H]2[C@H](Oc3cc(O)c4c(=O)cc(-c5ccc(O)cc5)oc4c3)O[C@H](CO)[C@@H](O)[C@@H]2O)[C@H](O)[C@H](O)[C@H]1O [RHOIFOLIN],< 1 ×10⁻⁶ cm/s
15,CC[C@H]1CN2CC[C@]3(C(=O)Nc4ccccc43)[C@@H]2C[C@@H]1/C(=C\OC)C(=O)OC [RHYNCHOPHYLLINE],6.5 ×10⁻⁶ cm/s
16,CC(C)=CCNc1ncnc2c1ncn2[C@@H]1O[C@H](CO)[C@@H](O)[C@H]1O [RIBOPRINE],< 1 ×10⁻⁶ cm/s
17,CO[C@H]1/C=C/O[C@@]2(C)Oc3c(C)c(O)c4c(O)c(cc(O)c4c3C2=O)NC(=O)/C(C)=C\C=C\[C@H](C)[C@H](O)[C@@H](C)[C@@H](O)[C@@H](C)[C@H](OC(C)=O)[C@@H]1C [RIFAMYCIN],< 1 ×10⁻⁶ cm/s
18,CNCC/C=C/c1cccnc1 [RIVANICLINE],7.1 ×10⁻⁶ cm/s
19,O=c1c(O)c(-c2cc(O)c(O)c(O)c2)oc2cc(O)ccc12 [ROBINETIN],1 ×10⁻⁶ cm/s
20,OC[C@H]1O[C@@H](OC[C@H]2O[C@@H](OC/C=C/c3ccccc3)[C@H](O)[C@@H](O)[C@@H]2O)[C@@H](O)[C@@H]1O [ROSARIN],< 1 ×10⁻⁶ cm/s
21,O[C@@H]1[C@@H](O)[C@H](OC/C=C/c2ccccc2)O[C@H](CO[C@@H]2OC[C@H](O)[C@H](O)[C@H]2O)[C@H]1O [ROSAVIN],< 1 ×10⁻⁶ cm/s
22,O=C(/C=C/c1ccc(O)c(O)c1)O[C@H](Cc1ccc(O)c(O)c1)C(=O)O [ROSMARINIC ACID],3.4 ×10⁻⁶ cm/s
23,C[C@@H]1O[C@@H](OC[C@H]2O[C@@H](Oc3c(-c4ccc(O)c(O)c4)oc4cc(O)cc(O)c4c3=O)[C@H](O)[C@@H](O)[C@@H]2O)[C@H](O)[C@H](O)[C@H]1O [RUTIN],< 1 ×10⁻⁶ cm/s
24,CNc1ccccc1C(=O)N1CCc2c([nH]c3ccccc23)C1=O [Rhetsinine],2.6 ×10⁻⁶ cm/s

# Same assay, conditions: PAMPA, PAMPA-BBB Pe, Table S2: compounds exhibiting moderate to high PAMPA-BBB permeability
row,Structure (SMILES),Papp
1,CC(C)=CCCC(C)=CC(=O)O [NEROLIC ACID],17 ×10⁻⁶ cm/s
2,Cn1cccc1-c1cccnc1 [NICOTYRINE],102 ×10⁻⁶ cm/s
3,CCCCCCCCC(=O)NCc1ccc(O)c(OC)c1 [NONIVAMIDE],125 ×10⁻⁶ cm/s
4,CC1=C(O)C(=O)CO1 [NORFURONOL],47 ×10⁻⁶ cm/s
5,COc1ccc(-c2cnc(-c3cccnc3)o2)cc1 [O-[…]],262 ×10⁻⁶ cm/s
6,Cn1cnc2c(NCc3ccccc3)nc(NCCO)nc21 [OLOMOUCINE],10 ×10⁻⁶ cm/s
7,CCOc1ccc(O)cc1 [P-HYDROXYPHENETOLE],35 ×10⁻⁶ cm/s
8,COc1ccc(COC(C)=O)cc1 [P-METHOXYBENZYL ACETATE],172 ×10⁻⁶ cm/s
9,COc1ccc(C(C)=O)c(O)c1 [PAEONOL],146 ×10⁻⁶ cm/s
10,COc1ccc(Cc2nccc3cc(OC)c(OC)cc23)cc1OC [PAPAVERINE HYDROCHLORIDE],165 ×10⁻⁶ cm/s
11,CC(C)(O)[C@H]1O[C@H]2CC[C@@]3(C)[C@@](O)(CC[C@H]4Cc5c([nH]c6ccccc56)[C@@]43C)C2=CC1=O [PAXILLINE],161 ×10⁻⁶ cm/s
12,CC(C)=CCOc1c2occc2cc2ccc(=O)oc12 [PENTOSALEN],195 ×10⁻⁶ cm/s
13,CCCCCCCCCCCCCC(=O)O[C@@H]1[C@@H](C)[C@@]2(O)[C@@H](C=C(CO)C[C@]3(O)C(=O)C(C)=C[C@@H]23)[C@@H]2C(C)(C)[C@]12OC(C)=O [PHORBOL MYRISTATE ACETATE],47 ×10⁻⁶ cm/s
14,COc1cc2c(cc1OC)OC(C)(C)C=C2 [PRECOCENE II],159 ×10⁻⁶ cm/s
15,C/C=C(\C)C(=O)O[C@@H]1c2c(ccc3ccc(=O)oc23)OC(C)(C)[C@@H]1OC(C)=O [PTERYXINE],205 ×10⁻⁶ cm/s
16,Cn1c2cccc(=O)c-2nc2ccccc21 [PYOCYANINE],299 ×10⁻⁶ cm/s
17,O=[N+]([O-])c1c(Cl)cccc1-c1c[nH]cc1Cl [PYRROLNITRIN],159 ×10⁻⁶ cm/s
18,COC(=O)C1=CO[C@@H](C)[C@H]2CN3CCc4c([nH]c5ccccc45)[C@@H]3C[C@H]12 [RAUBASINE HYDROCHLORIDE],125 ×10⁻⁶ cm/s
19,C=C(C)[C@]12C[C@@H](C)[C@@]34O[C@](Cc5ccccc5)(O[C@@H]1[C@@H]3C=C(COC(=O)Cc1ccc(O)c(OC)c1)C[C@]1(O)C(=O)C(C)=C[C@@H]41)O2 [RESINIFERATOXIN],38 ×10⁻⁶ cm/s
20,COc1ccc(/C=C/c2cc(O)cc(O)c2)cc1O [RHAPONTIN GENIN],70 ×10⁻⁶ cm/s
21,O=c1c2ccccc2nc2n1CCc1c-2[nH]c2ccccc12 [RUTECARPINE],151 ×10⁻⁶ cm/s
